Some test systems named below: 786-0; BT-549; CCRF-CEM; HCT-15; HOP-62; HOP-92; HT-29; KM12; MCF7; MDA-MB-435; OVCAR-4; OVCAR-5; PC-3; SF-539; SK-OV-3; SNB-75; TK-10; EKVX; SNB-19; NCI-H522.
Assay in all cases: NCI anticancer screen, dose series, 48 h

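Grown in 96-well plates, cells were treated for 48 hours with each compound at five concentrations. Insufficient inhibition: endpoint recorded as highest concentration tested. At the GI50, growth is halved.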 Activity calls are given as the source filed them. Rule as the data show it: active = GI50 up to about 1.1 µM and inactive = higher. Bounds are passed on as bounds.

In the case of `O=C(Nc1ccc(Cl)cc1C(F)(F)F)C(=O)Nn1c(S)nc2ccccc2c1=O`, the GI50 in the assay with 786-0 was > 100 µM (inactive); in the assay with BT-549 it was > 100 µM (inactive); in the assay on CCRF-CEM, 59.8 µM (inactive); in the assay with HCT-15, more than 100 µM; with HOP-62 it was > 100 µM (inactive); with HOP-92, 3.99 µM (inactive). Moreover, the GI50 in the assay on HT-29 was > 100 µM (inactive); with KM12, > 100 µM (inactive); in the assay with MCF7, > 100 µM (inactive); in the assay with MDA-MB-435 it was > 100 µM (inactive); with OVCAR-4, 60.4 µM (inactive); in the assay on OVCAR-5, > 100 µM (inactive). Besides, the GI50 in the assay with PC-3 is > 100 µM (inactive); in the assay with SF-539, > 100 µM (inactive); with SK-OV-3, > 100 µM (inactive); in the assay on SNB-75, 27.8 µM (inactive); in the assay with TK-10 it was > 100 µM (inactive).

Take `O=C1CCCCC/C1=C\c1cccc([N+](=O)[O-])c1`: the GI50 with 786-0 was 33.2 µM (inactive); in the assay on BT-549, 24.5 µM (inactive); in the assay with CCRF-CEM, 12.2 µM (inactive); in the assay with EKVX, 33.7 µM (inactive); in the assay on HOP-62 it was 38.9 µM (inactive); in the assay on HT-29, 37.2 µM (inactive). Also, the GI50 with KM12 was 25 µM (inactive); in the assay on MCF7, 48.3 µM (inactive); in the assay with MDA-MB-435 it was 32.7 µM (inactive); in the assay on OVCAR-5, 46.2 µM (inactive); in the assay with PC-3 it was 34.3 µM (inactive); with SF-539, 21.5 µM (inactive). In addition, the GI50 in the assay on SK-OV-3 was 79.1 µM (inactive); in the assay on SNB-19 it was 38.6 µM (inactive); in the assay on SNB-75, 38.2 µM (inactive); in the assay with TK-10, 33.7 µM (inactive).

In the case of `CCCCNC(=S)c1ccc(OC(=O)Nc2ccc(Cl)cc2)cc1`, the GI50 with 786-0 is > 100 µM (inactive); in the assay with BT-549, 20.6 µM (inactive); in the assay with CCRF-CEM, 26.3 µM (inactive); in the assay on EKVX, 42.2 µM (inactive); with HCT-15, 12.2 µM; with HOP-62, > 100 µM (inactive). The GI50 in the assay on HT-29 is 8.18 µM (inactive); with KM12, 2.75 µM (inactive); with MCF7 it was 41.7 µM (inactive); with MDA-MB-435 it was 70.1 µM (inactive); in the assay with NCI-H522, 24.5 µM (inactive); in the assay on OVCAR-4, 8.43 µM (inactive). Besides, the GI50 is 40.3 µM (inactive) in the assay on OVCAR-5; > 100 µM (inactive) in the assay on PC-3; > 100 µM (inactive) with SF-539; > 100 µM (inactive) in the assay on SK-OV-3; > 100 µM (inactive) with SNB-19.

With `c1ccc2c(c1)nc1n2CCSC1`, the GI50 was > 100 µM (inactive) with 786-0; > 100 µM (inactive) with BT-549; > 100 µM (inactive) with CCRF-CEM; > 100 µM (inactive) with EKVX; more than 100 µM with HCT-15; > 100 µM (inactive) in the assay with HOP-62. The GI50 with HOP-92, in the assay with HT-29, in the assay with KM12, in the assay on MCF7, in the assay on MDA-MB-435 and in the assay with OVCAR-4 was > 100 µM (inactive) throughout. Further, the GI50 in the assay with OVCAR-5, in the assay with PC-3, in the assay with SF-539, with SK-OV-3, in the assay on SNB-19 and with SNB-75 was > 100 µM (inactive) throughout. For the same compound, the GI50 with TK-10 was > 100 µM (inactive).

On to `N#CCCN(CCC#N)c1ccc(/C=C2\N=C(c3ccccc3)N(c3ccc(C(=O)O)cc3)C2=O)cc1`, for which the GI50 with 786-0 is 52 µM (inactive); with BT-549, 24.4 µM (inactive); in the assay on EKVX, 26.2 µM (inactive); with HCT-15, 40.8 µM; in the assay with HOP-62, > 100 µM (inactive); in the assay on HOP-92, 6.28 µM (inactive). Besides, the GI50 in the assay on HT-29 is 95.1 µM (inactive); in the assay on KM12, 17.2 µM (inactive); in the assay on MCF7, 37.6 µM (inactive); in the assay with MDA-MB-435, 31.8 µM (inactive); with OVCAR-4, 14.4 µM (inactive); with OVCAR-5 it was > 100 µM (inactive). Moreover, the GI50 in the assay with PC-3 is 37.5 µM (inactive); in the assay on SF-539, 24.4 µM (inactive); with SK-OV-3, > 100 µM (inactive); with SNB-19, 32.2 µM (inactive); in the assay on TK-10 it was > 100 µM (inactive).

Consider `C[C@H]1O[C@@H](O[C@H]2[C@@H](O)C[C@H](O[C@H]3[C@@H](O)C[C@H](O[C@H]4CC[C@@]5(C)[C@H](CC[C@@H]6[C@@H]5CC[C@]5(C)[C@@H](C7=CC(=O)OC7)[C@@H](O)C[C@]65O)C4)O[C@@H]3C)O[C@@H]2C)C[C@H](O)[C@@H]1O` [GITOXIN], for which the GI50 with 786-0 is 0.151 µM (active); with BT-549, 0.116 µM (active); in the assay on CCRF-CEM, 0.109 µM (active); in the assay on EKVX, 0.164 µM (active); in the assay on HCT-15, 0.593 µM; in the assay with HOP-62, 0.566 µM (active). The GI50 was 0.402 µM (active) in the assay with HOP-92; 0.177 µM (active) in the assay with HT-29; 0.658 µM (active) in the assay with KM12; 0.365 µM (active) with MDA-MB-435; 0.0238 µM (active) with NCI-H522; 0.271 µM (active) with OVCAR-4. The GI50 in the assay with OVCAR-5 was 0.656 µM (active); in the assay with PC-3, 0.259 µM (active); in the assay on SF-539, 0.1 µM (active); with SK-OV-3, 0.39 µM (active); in the assay on SNB-19, 0.714 µM (active); with SNB-75, 0.703 µM (active). Moreover, the GI50 in the assay with TK-10 is 0.254 µM (active).

Turning to `CCn1c(SCC(=O)NNC(=S)Nc2ccc([N+](=O)[O-])cc2)nc2ccccc2c1=O`, the GI50 with 786-0 was 60.5 µM (inactive); in the assay on BT-549 it was 53.8 µM (inactive); in the assay with CCRF-CEM, 37.2 µM (inactive); in the assay on EKVX it was > 100 µM (inactive); with HCT-15, 47 µM; with HOP-62, 81.1 µM (inactive). Also, the GI50 in the assay with KM12 is 68.2 µM (inactive); in the assay with MCF7, 83.4 µM (inactive); in the assay with MDA-MB-435, > 100 µM (inactive); in the assay on NCI-H522, 39.8 µM (inactive); with OVCAR-4, 48.5 µM (inactive); in the assay on OVCAR-5, > 100 µM (inactive). For the same compound, the GI50 in the assay with PC-3 is 41.4 µM (inactive); in the assay with SF-539 it was > 100 µM (inactive); in the assay on SK-OV-3, > 100 µM (inactive); with SNB-19 it was 81.7 µM (inactive); with SNB-75 it was 83.4 µM (inactive); in the assay with TK-10, 68.9 µM (inactive).

Turning to `CNC(=O)OCC1=C(COC(=O)NC)C(C)N(c2ccc(OC)cc2)C1` (configuration not stated), the GI50 is 57 µM (inactive) in the assay on 786-0; > 100 µM (inactive) in the assay with BT-549; 47.2 µM (inactive) in the assay on CCRF-CEM; > 100 µM (inactive) in the assay on EKVX; more than 100 µM with HCT-15; 40.3 µM (inactive) in the assay with HOP-62. Further, the GI50 in the assay on HOP-92 is > 100 µM (inactive); in the assay with HT-29, 64.9 µM (inactive); with KM12, > 100 µM (inactive); in the assay with MCF7, 50.6 µM (inactive); in the assay on MDA-MB-435, > 100 µM (inactive); with OVCAR-4, 54.6 µM (inactive). The GI50 was 24.1 µM (inactive) in the assay on OVCAR-5; 71.6 µM (inactive) in the assay on PC-3; 59.8 µM (inactive) in the assay on SF-539; > 100 µM (inactive) with SK-OV-3; > 100 µM (inactive) in the assay on SNB-19; 29.4 µM (inactive) in the assay with SNB-75. Moreover, the GI50 in the assay on TK-10 was 11.5 µM (inactive).

As to `O=C(O)c1cccc2cccc(-c3cccc4cccc(C(=O)O)c34)c12`, the GI50 in the assay on 786-0 is > 100 µM (inactive); in the assay with BT-549, > 100 µM (inactive); in the assay on CCRF-CEM, > 100 µM (inactive); in the assay with EKVX, > 100 µM (inactive); in the assay on HCT-15 it was more than 100 µM; with HOP-62, > 100 µM (inactive). For the same compound, the GI50 with HT-29, in the assay on KM12, with MCF7, in the assay on MDA-MB-435, in the assay with NCI-H522 and in the assay on OVCAR-4 was > 100 µM (inactive) in each case. Further, the GI50 with OVCAR-5, with PC-3, in the assay on SF-539, in the assay on SK-OV-3, in the assay with SNB-19 and with SNB-75 was > 100 µM (inactive) in each case. For the same compound, in the assay with TK-10, the GI50 is > 100 µM (inactive).

For `COc1ccc(/C=N/NS(=O)(=O)c2ccc(/C=C3\NC(=O)NC3=O)cc2)cc1`, the GI50 in the assay on 786-0 is 47.1 µM (inactive); in the assay on BT-549 it was > 100 µM (inactive); in the assay on CCRF-CEM it was > 100 µM (inactive); with EKVX it was > 100 µM (inactive); with HCT-15 it was more than 100 µM; in the assay on HOP-62 it was > 100 µM (inactive). In addition, the GI50 in the assay on HOP-92, with HT-29, in the assay on KM12, in the assay with MCF7, in the assay on MDA-MB-435 and in the assay with OVCAR-4 was > 100 µM (inactive) throughout. In addition, the GI50 with OVCAR-5 is > 100 µM (inactive); in the assay with PC-3 it was > 100 µM (inactive); in the assay on SK-OV-3, 73.5 µM (inactive); in the assay with SNB-19 it was 90.8 µM (inactive); in the assay with SNB-75 it was 23.9 µM (inactive); with TK-10, > 100 µM (inactive).

On to `Cc1ccc(C(=O)Nc2ccc(CP(=O)(O)O)cc2CP(=O)(O)O)cc1NC(=O)c1cccc(NC(=O)Nc2cccc(C(=O)Nc3cc(C(=O)Nc4ccc(CP(=O)(O)O)cc4CP(=O)(O)O)ccc3C)c2)c1`, for which the GI50 in the assay with 786-0 is > 100 µM (inactive); in the assay on BT-549, > 100 µM (inactive); in the assay with CCRF-CEM, > 100 µM (inactive); in the assay with EKVX it was > 100 µM (inactive); with HCT-15, more than 100 µM; in the assay with HOP-62 it was > 100 µM (inactive). In addition, the GI50 in the assay on HT-29, in the assay on KM12, with MCF7, in the assay on MDA-MB-435, in the assay on NCI-H522 and in the assay with OVCAR-4 was > 100 µM (inactive) each time. Moreover, the GI50 in the assay with OVCAR-5, in the assay on PC-3, in the assay with SF-539, in the assay with SK-OV-3, with SNB-75 and in the assay with TK-10 was > 100 µM (inactive) throughout.

Source of the values: ChEMBL document CHEMBL1201862, “PubChem BioAssay data set” (2004).
